Results on four molecules are retold here after paper PMC7114444 (Virus Research, 2014).

Entries after “also recorded” stand apart in the source; their conditions may differ.

For test [1], the system named is NFAT3-GFP. In words: NFAT-GFP nuclear translocation assay. It counts as cell-based. The conditions noted are these: HeLa cells, 40 nM drug, 2 μM ionomycin.
In test [2] the test system is HCoV-NL63. In words: HCoV-NL63 replication in Caco-2 cells, qPCR of genome equivalents. It counts as cell-based. The conditions noted are these: Human coronavirus NL63, Caco-2, 48 h, read-out: Inhibition of HCoV-NL63 in CaCo-2 EC50.
In test [3] the test system is HCoV-NL63 N-protein. In words: Western blot of N protein expression in HCoV-NL63-infected CaCo-2 cells. The following applies: for N-protein expression at 20 μM: 48 h, 20 μM inhibitor. It counts as cell-based.
The test system of test [4] is lymphocyte. The conditions noted are these: lymphocyte proliferation assays, ref Sadeg et al., 1993a, 1993b; cited from earlier work.

For the molecule `C/C=C/C[C@@H](C)[C@@H](O)[C@H]1C(=O)N[C@@H](CC)C(=O)N(C)CC(=O)N(C)[C@@H]([C@@H](C)CC)C(=O)N[C@@H](C(C)C)C(=O)N(C)[C@@H](CC(C)C)C(=O)N[C@@H](C)C(=O)N[C@H](C)C(=O)N(C)[C@@H](CC(C)C)C(=O)N(C)[C@@H](CC(C)C)C(=O)N(C)[C@@H](C(C)C)C(=O)N1C` [NIM811], the “NFAT-GFP nuclear translocation” value in test [1] is listed as “allow NFAT-GFP translocation to the nucleus; also recorded: NFAT migrated to the nucleus”. Besides, in test [2], the EC50 is 800 nM. Further, the “N-protein expression at 20 μM” value in test [3] is given as “not detectable any more”. Besides, the “concentration above which N protein is not detectable any more” value in test [3] (discussion statement) is on record as “above 5 μM”.
Turning to `C=CC[C@@H]1/C=C(\C)C[C@H](C)C[C@H](OC)[C@H]2O[C@@](O)(C(=O)C(=O)N3CCCC[C@H]3C(=O)O[C@H](/C(C)=C/[C@@H]3CC[C@@H](O)[C@H](OC)C3)[C@H](C)[C@@H](O)CC1=O)[C@H](C)C[C@@H]2OC` [FK506], the “NFAT-GFP nuclear translocation” value in test [1] is recorded as “NFAT is not transferred to the nucleus; also recorded: remained in the cytoplasm”. For the same molecule, in test [2], the EC50 came to 6600 nM.
As to `C/C=C/C[C@@H](C)[C@@H](O)[C@H]1C(=O)N[C@@H](C(C)C)C(=O)N(C)CC(=O)N(C)[C@@H](CC(C)C)C(=O)N[C@@H](C(C)C)C(=O)N(C)[C@@H](CC(C)C)C(=O)N[C@@H](C)C(=O)N[C@H](C)C(=O)N(C)[C@@H](CC(C)C)C(=O)N(C)[C@@H](CC(C)C)C(=O)N(C)[C@@H](C(C)C)C(=O)N1C` [CsD], the “NFAT-GFP nuclear translocation” value in test [1] is “NFAT is not transferred to the nucleus; also recorded: showed the same behavior as CsA; also recorded: remained in the cytoplasm”. Also, in test [4], the “immunosuppressive activity relative to CsA activity” value is given as “about 10%”.
As for `C/C=C/C[C@@H](C)[C@@H](O)[C@H]1C(=O)N[C@@H](CC)C(=O)N(C)[C@H](C)C(=O)N(CC)[C@@H](C(C)C)C(=O)N[C@@H](C(C)C)C(=O)N(C)[C@@H](CC(C)C)C(=O)N[C@@H](C)C(=O)N[C@H](C)C(=O)N(C)[C@@H](CC(C)C)C(=O)N(C)[C@@H](CC(C)C)C(=O)N(C)[C@@H](C(C)C)C(=O)N1C` [ALV, Alisporivir], in test [1], the “NFAT-GFP nuclear translocation” value is listed as “allow NFAT-GFP translocation to the nucleus; also recorded: NFAT migrated to the nucleus”. Besides, in test [2], the EC50 came out at 800 nM. The “N-protein expression at 20 μM” value in test [3] was “not detectable any more”. For the same molecule, in test [3] (discussion statement), the “concentration above which N protein is not detectable any more” value was “above 5 μM” and the “concentration at which N protein decreased” value is 1.25 µM.
